Test results: patent publication US12516038B2, “Inhibitors of antigen presentation by HLA-DR” (Janssen Pharmaceutica NV, priority 2020, dated 2026)

How the values were obtained:
HLA-DRB1*0401 = HLA-DRB1*0401 (Homo sapiens (Human), UniProt P01903+P01911, A100K/A169T/DEL228-266/F76Y/I96L/K127E/L162R/M171V/N62H/P40V/Q125Y/R42H/S133A/S149N/S66Y/V115G/V209L/W38E); test: HLA-DR4 HTRF assay; format: binding; conditions: inhibition of loading of Alexa Fluor 647-labeled Cit-CII peptide onto HLA-DR4 (CLIP cleaved)
Outline: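 HLA-DRB1*04:01 construct (α/β fused to human Fc, CLIP pre-cleaved by HRV3C overnight at 4° C) at 3 nM was preincubated 45 min with compound and 1 nM anti-Fc-Tb donor, then 40 nM Alexa647-Cit-CII1236-1249 peptide added. After 90 min at 37° C, the 665/620 nm HTRF ratio gave % inhibition; IC50 by nonlinear regression.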

[1] = test system: HLA-DR4 restricted mouse T cell hybridoma line (DR4.CII.36.8) with HLA-DRB1*04:01-expressing Boleth cells; test: HLA-DR4-restricted peptide-specific T cell-based assay (hybridoma assay); conditions: Mus musculus, T-cell, 6 h, inhibition of IL-2 production, CII259-273 peptide presented by Boleth cells
Outline: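 Boleth cells (HLA-DRB1*04:01 B cell line) pre-incubated with compound 1 h at 37° C. in DMEM/1% FCS, then DR4.CII.36.8 mouse T cell hybridoma (CII259-273-specific) added for 6 h with CII259-273 peptide. Supernatant mouse IL-2 by AlphaLISA; IC50 by 4-PL fit of 8-point duplicate titrations.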

[2] = test system: human peripheral blood CD4+ helper T cells; test: Pan-CD4+ T cell activation (off-target assay); format: cell-based; conditions: Homo sapiens, T-cell, 24 h, anti-CD3/anti-CD28 stimulation, IL-2 production by ELISA
Source text: The counter-screening was made through an HLA-DR-independent assay (Pan-CD4+ T cell activation assay), i.e., TCR-stimulated pan-T cell activation assay, and consists of activating T cell directly with agonistic antibody targeting the T cell receptor. The lack of inhibition in the counter-screening assay reflects that the inhibition of T cell activation in the HLA-DR4 restricted peptide-specific T cell based assay with the small molecule inhibitors is due to impaired antigen presentation on HLA-DR to the T cell and not due to a direct inhibition of the T cell function by an off-target mechanism (i.e., independently of targeting HLA-DR).
Pan-CD4+ T Cell Activation
Compounds were tested using a pan-T cell activation assay. In this assay, anti-human CD3 antibody (BD Pharmingen #55336) pre-coated at 1 μg/mL to a 96-well assay plate and 1 μg/ml soluble anti-human CD28 (EBioscience #16-0289-85) antibody were used for activating human peripheral blood CD4+ helper T cells (no HLA-DR-expressing APC were present in this assay format), in the presence of compounds (or vehicle control) for 24 hrs. IL-2 production was measured in the culture supernatant by ELISA (Human IL-2 Duo Set ELISA #DY202 from R&D Systems).

Row | Compound | IC50 (HLA-DRB1*0401) [nM] | IC50 [1] [nM] | IC50 [2] [nM]
1 | NC(=O)c1ccc([C@@H](Oc2cc3c(cc2F)C(=O)CCO3)c2ccncc2)cc1 (single isomer, unassigned) [Example 52a, (*R)-4-(((6-Fluoro-4-oxochroman-7-yl)oxy)(pyridin-4-yl)methyl)benzamide] | 230 | 560 | > 15000
2 | Cc1cc2c(c(C)c1O[C@H](c1ccncc1)c1ccc(C#N)cc1)OCCC2=O (single isomer, unassigned) [Example 88b, (*S)-4-(((6,8-dimethyl-4-oxochroman-7-yl)oxy)(pyridin-4-yl)methyl)benzonitrile] | 360 | 5900 | 9900
3 | COc1ccc(COc2ccc([C@H](Oc3ccc4c(c3)OCCC4=O)c3ccncc3)cc2)cc1 (single isomer, unassigned) [Example 17b, (*S)-7-((4-((4-Methoxybenzyl)oxy)phenyl)(pyridin-4-yl)methoxy)chroman-4-one] | 4900 | 7700 | 4800
4 | Cc1c(O[C@@H](c2ccc(C(N)=O)cc2)c2ccc(Cl)cn2)ccc2c1OCCC2=O (single isomer, unassigned) [Example 62b, (*S)-4-((5-chloropyridin-2-yl)((8-methyl-4-oxochroman-7-yl)oxy)methyl)benzamide] | 1400 | 1800 | 2700
5 | COc1ccc([C@H](Oc2ccc3c(c2)OCCC3=O)c2ccncc2)cc1 (single isomer, unassigned) [Example 12b, (*S)-7-((4-Methoxyphenyl)(pyridin-4-yl)methoxy)chroman-4-one] | 1700 | 2900 | > 15000
6 | NC(=O)c1ccc([C@H](Oc2ccc3c(c2Br)OCCC3=O)c2ccncc2)cc1 (single isomer, unassigned) [Example 102b, (*S)-4-(((8-bromo-4-oxochroman-7-yl)oxy)(pyridin-4-yl)methyl)benzamide] | > 89000 | 91 | > 15000
7 | NC(=O)c1ccc([C@H](Oc2ccc3c(c2)OCCC3=O)c2ccnc(C(F)(F)F)c2)cc1 (single isomer, unassigned) [Example 18b, (*S)-4-(((4-oxochroman-7-yl)oxy)(2-(trifluoromethyl)pyridin-4-yl)methyl)benzamide] | 950 | 12000 | 9900
8 | NC(=O)c1ccc([C@H](Oc2ccc3c(c2-c2ccccc2)OCCC3=O)c2ccncc2)cc1 (single isomer, unassigned) [Example 53b, (*S)-4-(((4-oxo-8-phenylchroman-7-yl)oxy)(pyridin-4-yl)methyl)benzamide] | 600 | 450 | 3200
9 | CC[C@@H]1COc2cc(O[C@H](c3ccncc3)c3ccc(C(N)=O)cc3)ccc2C1=O (single isomer, unassigned) [Example 45a, 4-((*S)—(((*R)-3-ethyl-4-oxochroman-7-yl)oxy)(pyridin-4-yl)methyl)benzamide] | 1100 | 3400 | > 15000
10 | COc1ccc(C(Oc2ccc3c(c2)OCCC3=O)c2ccncc2)cc1 (racemic) [Example 12, (R,S)-7-((4-Methoxyphenyl)(pyridin-4-yl)methoxy)chroman-4-one] | 1200 | 1600 | > 15000
11 | Cc1c(OC2CCc3cc(C(N)=O)ccc32)ccc2c1OCCC2=O (racemic) [Example 121, (R,S)-1-((8-Methyl-4-oxochroman-7-yl)oxy)-2,3-dihydro-1H-indene-5-carboxamide] | 630 | 8100 | > 15000
12 | CCC1COc2cc(OCc3ccncc3)ccc2C1=O (racemic) [Example 120, (R,S)-3-Ethyl-7-(pyridin-4-ylmethoxy)chroman-4-one] | 1200 | 5100 | > 15000
13 | CC(C)c1c(O[C@H](c2ccncc2)c2ccc(C(N)=O)cc2)ccc2c1OCCC2=O (single isomer, unassigned) [Example 75b, (*S)-4-(((8-isopropyl-4-oxochroman-7-yl)oxy)(pyridin-4-yl)methyl)benzamide] | 630 | 180 | 9300
14 | Cc1c(O[C@H](c2ccc(C(N)=O)cc2)c2ccnc(CCC(=O)O)c2)ccc2c1OCCC2=O (single isomer, unassigned) [Example 87a] | 580 | 830 | > 15000
15 | NC(=O)c1ccc([C@H](Oc2ccc3c(c2)OCCC3=O)c2ccncc2)cc1 (single isomer, unassigned) [Example 11b, (*S)-4-(((4-oxochroman-7-yl)oxy)(pyridin-4-yl)methyl)benzamide] | 950 | 4700 | > 15000
16 | CN(C)C(=O)c1ccc([C@@H](Oc2ccc3c(c2)OCCC3=O)c2ccncc2)cc1 (single isomer, unassigned) [Example 72a, (*R)—N,N-dimethyl-4-(((4-oxochroman-7-yl)oxy)(pyridin-4-yl)methyl)benzamide] | 840 | 6300 | 9900
17 | CCc1c(O[C@@H](c2ccncc2)c2ccc(C(N)=O)cc2)ccc2c1OCCC2=O (single isomer, unassigned) [Example 73a, (*R)-4-(((8-ethyl-4-oxochroman-7-yl)oxy)(pyridin-4-yl)methyl)benzamide] | 540 | 110 | 8000
18 | O=C1CCOc2cc(O[C@H](c3ccncc3)C3CCCCC3)ccc21 (single isomer, unassigned) [Example 38b, (*S)-7-(cyclohexyl(pyridin-4-yl)methoxy)chroman-4-one] | 4100 | 5500 | > 15000
19 | O=C1CCOc2cc(O[C@H](c3ccncc3)c3cccc(O)c3)ccc21 (single isomer, unassigned) [Example 5a, (*R)-7-((3-Hydroxyphenyl)(pyridin-4-yl)methoxy)chroman-4-one] | 14000 | 1900 | 2800
20 | NC(=O)c1ccc([C@H](Oc2ccc3c(c2)OCCC3=O)c2ccnc(N)c2)cc1 (single isomer, unassigned) [Example 28b, (*S)-4-((2-aminopyridin-4-yl)((4-oxochroman-7-yl)oxy)methyl)benzamide] | 1700 | 3500 | > 15000
21 | Cc1c(O[C@H](c2ccc(C(N)=O)cc2)c2ccccc2C#N)ccc2c1OCCC2=O (single isomer, unassigned) [Example 61a, (*R)-4-((2-cyanophenyl)((8-methyl-4-oxochroman-7-yl)oxy)methyl)benzamide] | 990 | 4600 | 2700
22 | Cc1c(O[C@H](c2ccncc2)c2ccc(C(N)=O)cc2OC(C)C)ccc2c1OCCC2=O (single isomer, unassigned) [Example 84a, (*R)-3-isopropoxy-4-(((8-methyl-4-oxochroman-7-yl)oxy)(pyridin-4-yl)methyl)benzamide] | 1200 | 790 | 470
23 | CC[C@H]1COc2cc(O[C@H](c3ccncc3)c3ccc(C(N)=O)cc3)ccc2C1=O (single isomer, unassigned) [Example 45b, 4-((*S)—(((*S)-3-ethyl-4-oxochroman-7-yl)oxy)(pyridin-4-yl)methyl)benzamide] | 1400 | 10000 | > 15000
24 | COc1ccc(COc2cccc([C@H](Oc3ccc4c(c3)OCCC4=O)c3ccncc3)c2)cc1 (single isomer, unassigned) [Example 4a, (*R)-7-((3-((4-Methoxybenzyl)oxy)phenyl)(pyridin-4-yl)methoxy)chroman-4-one] | 6900 | 2900 | 7800
25 | Cc1cc([C@H](Oc2ccc3c(c2)OCCC3=O)c2ccc(C(N)=O)cc2)ccn1 (single isomer, unassigned) [Example 15a, (*R)-4-((2-Methylpyridin-4-yl)((4-oxochroman-7-yl)oxy)methyl)benzamide] | 440 | 610 | > 15000
26 | CCc1c(O[C@H](c2ccncc2)c2ccc(C(N)=O)cc2)ccc2c1OCCC2=O (single isomer, unassigned) [Example 73b, (*S)-4-(((8-ethyl-4-oxochroman-7-yl)oxy)(pyridin-4-yl)methyl)benzamide] | 600 | 710 | 15000
